Structures can show the parent of a compound that is named as a salt.
Key:
solubility in water = assay type: physicochemical
Sprague-Dawley male,rats = assay: yeast induced hyperpyrexy test (antipyretic activity); assay type: in vivo; conditions: Rattus norvegicus, tested dosages 100, 200 and 400 mg/kg
Procedure: This test has been carried out in the manner known from the literature in Sprague-Dawley male,rats, having a body weight of 190-220g, which were selected according to the rectal temperature which was of between 37.0 and 37.7°C.
The hyperpyrexy was induced by subcutaneous injection of 2.0 ml of a 7.5% suspension of yeast as prepared at the moment.
The tested dosages were 100, 200 and 400 mg/kg and the found ED33 value was 802 mg/kg.

[1] = mucolithic activity: viscosity of expectorate; conditions: 0.05M, one hour incubation at 37°C
Procedure: This test was carried out, in the manner known from the literature, in 13 ml samples of expectorate collected from hospitalized patients, and stored in a freezer at -20°C until the testing time.
At the tested concentration of the compound undergoing the experiment (0.05M) a viscosity reduction of 16% (29% to 13%) was found. ^7

[2] = system: Sprague-Dawaley male rats; assay: carrageenin induced oedema test (anti-inflammatory activity); assay type: in vivo; conditions: for ED33: Rattus norvegicus, carrageenin oedema inhibition
Procedure: This activity has been evaluated for the NXTP compound by the carrageenin induced oedema test, carried out in the manner known in the literature, in Sprague-Dawaley male rats, having a body weight of 180-200 g, the NXTP being administered to groups of 3 animals each at the dosages of 50, 100, 200 and 400 mg/kg, the results
being evalutaed in comparison with a control group.
Since in no caso an inhibition rate of 50% was attained, the value of ED 33 was calculated, it being 759 rng/kg (0,651 mM/kg).

Swiss male albine mice = assay: acetic acid induced stretching or writhing inhibition test (analgesic activity); assay type: in vivo
Procedure: This test was carried out in Swiss male albine mice, having a body weight of 30-40 g through the "stretching or writhing" inhibition test, as induced by acetic acid, the test being carried out in a manner per se known from the literature.

SMILES | solubility in water (solubility in water) | pH (solubility in water; pH of the product dissolved in water) | ED33 (Sprague-Dawley male,rats) | viscosity reduction (net of the 13% reduction with physiological solution) [1] | viscosity reduction (total) [1] | ED33 ([2]; same value in molar unit) | ED33 ([2]; tested dosages 50, 100, 200 and 400 mg/kg, calculated because 50% inhibition was not attained) | oedema inhibition (dose dependence) ([2]; dosages 50, 100, 200 and 400 mg/kg, versus control group) | inhibition rate ([2]; oedema inhibition at 50, 100, 200 and 400 mg/kg, 50% attained in no case) | ED50 (Swiss male albine mice; Mus musculus, sc, inhibition of contorsions induced by acetic acid, subcutaneous route, tested doses 50, 100 and 200 mg/kg) | inhibition of the number of contorsions (dose dependence) (Swiss male albine mice; doses 50, 100 and 200 mg/kg by subcutaneous route)
COc1ccc2cc(C(C)C(=O)SC(C)C(=O)NCC(=O)O)ccc2c1 (single isomer, unassigned) [arginine crystalline product, Arginine salt of DL-2-(6-methoxy-2-napthyl)propionyl-alpha-thio-propionylglycine] | soluble in water | 7.3 |  |  |  |  |  |  |  |  | 
COc1ccc2cc(C(C)C(=O)SC(C)C(=O)NCC(=O)O)ccc2c1 (racemic) [NXTP, propionylerytrhomycin salt of DL-2-(6-methoxy-2-napthyl)-propionyl-alpha-thio-propionylglycine] |  |  | 802 mg/kg | 16% | 29% | 651 µmol/kg | 759 mg/kg | causes the oedema to be inhibited proportionally to the administered dose | < 50% | 400 mg/kg | in a rate proportional to the administered doses
COc1ccc2cc(C(C)C(=O)SC(C)C(=O)NCC(=O)O)ccc2c1 (single isomer, unassigned) [L(+)-lysine salt of the DL-2-(6-methoxy-2-napthyl)-alpha- th] [L(+)lysine salt of DL-2-(6-methoxy-2-napthyl)-propionyl-alpha-thio-propionylglycine acid] | perfectly soluble in water |  |  |  |  |  |  |  |  |  | 
